Data taken from US11274092B2, “Potassium channel inhibitors” (ACESION PHARMA ApS, priority 2016, dated 2022).

Biological target: T1, human SK3 channel (hKCa2.3) (Homo sapiens, UniProt Q9UGI6)
T1 construct: expressed in transfected cells
Assay: Automated whole cell patch-clamp (QPatch 16 HT), inhibition of SK3 current
Type: cell-based
Conditions: HEK-293 cells stably expressing hKCa2.3; symmetrical K+ solutions, free calcium 400 nM; effects normalized to N-methyl bicuculline
In short: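 HEK-293 cells stably expressing hKCa2.3, automated whole-cell patch clamp in symmetrical K+ (400 nM free intracellular Ca2+, pH 7.2; external pH 7.4). Held at 0 mV, ramps −80 to +80 mV (200 ms) every 5 s; increasing compound concentrations, currents run-down corrected and normalized to 100 μM N-methyl bicuculline; IC50 reported.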

For `COCCNC(=O)CC(Nc1nc2c(OC)cccc2[nH]1)c1cccc(C(F)(F)F)c1` (stereo not shown) [Example 93, 3-[(4-methoxy-1H-1,3-benzodiazol-2-yl)amino]-N-(2-methoxyethyl)-3-[3-(trifluoromethyl)phenyl]propanamide], which IC50 is on record?
Its IC50 is < 10 µM.

Which IC50 does the source give for `O=C(CC(Nc1nc2c(CO)cccc2[nH]1)c1cccc(C(F)(F)F)c1)NCCOC(F)(F)F` (stereo not shown) [Example 94, 3-{[4-(hydroxymethyl)-1H-1,3-benzodiazol-2-yl]amino}-N-[2-(trifluoromethoxy)ethyl]-3-[3-(trifluoromethyl)phenyl]propanamide] here?
Its IC50 is < 10 µM.

`COCCNC(=O)CC(Nc1nc2cc(F)c(F)cc2[nH]1)c1cccc(C(F)(F)F)c1` (stereo not shown) [Example 95, 3-[(5,6-difluoro-1H-1,3-benzodiazol-2-yl)amino]-N-(2-methoxyethyl)-3-[3-(trifluoromethyl)phenyl]propanamide] was tested. Which IC50 did it give?
Its IC50 is 10 to 100 µM.

For `COCCNC(=O)CC(Nc1nc2c(C)c(F)ccc2[nH]1)c1cccc(C(F)(F)F)c1` (stereo not shown) [Example 96, 3-[(5-fluoro-4-methyl-1H-1,3-benzodiazol-2-yl)amino]-N-(2-methoxyethyl)-3-[3-(trifluoromethyl)phenyl]propanamide], which IC50 is on record?
The IC50 was 10 to 100 µM.
